Entries after “also recorded” stand apart in the source; their conditions may differ.
Experiments:
mouse L1210 leukemia = mouse L1210 leukemia model; Atwell, Cain and Seelye 1972; cited from earlier work
P388 leukemia = P388 leukemia in vivo (increase in lifespan of mice, i.p. tumour); conditions: for active (P388): P388, at the stated dose
[1] = Potency and antitumour activity in in vivo test systems (general statements)
Lewis lung carcinoma = Lewis lung carcinoma in vivo (increase in lifespan of mice, i.v. tumour); conditions: for ILS (percentage increase in lifespan): values without asterisk, controls 17 days; for active (Lewis lung): at the stated dose
Aerobacter aerogenes = test: Antibacterial activity
Alcaligenes viscolactis = test: Antibacterial activity
Escherichia coli = test: Antibacterial activity
Bacillus subtilis = test: Antibacterial activity
Sarcina lutea = test: Antibacterial activity
[2] = tested on: Micrococcus lysodeikticus; test: Antibacterial activity
Neisseria catarrhalis = test: Antibacterial activity
Staphylococcus aureus = test: Antibacterial activity
Xanthomonas phaseoli = test: Antibacterial activity
Streptococcus faecalis = test: Antibacterial activity
[3] = 3'-substituted AMSA analogues; earlier publications; cited from earlier work
[4] = Lewis lung, at OD on days 1, 5, 9, >40% statistically significant

SMILES: CS(=O)(=O)Nc1ccc(Nc2c3ccccc3nc3ccccc23)cc1 [AMSA, 4'-(9-acridinylamino) methanesulphonanilide]
- antitumour activity (mouse L1210 leukemia): good antitumour activity

SMILES: CNc1cc(NS(C)(=O)=O)ccc1Nc1c2ccccc2nc2ccccc12 [Compound 1]
- active (P388) (P388 leukemia): Y
- potency and antitumour activity (in words) [1]: increased potency and antitumour activity compared to the unsubstituted AMSA and the 3'-methoxy derivative m-AMSA (amsacrine)
- ILS (percentage increase in lifespan) (Lewis lung carcinoma; [4]): 85%
- active (Lewis lung) (Lewis lung carcinoma; Lewis lung): Y

SMILES: CNc1cc(NS(C)(=O)=O)ccc1Nc1c2ccccc2nc2c(C)cccc12 [Compound 12]
- ILSmax (percentage increase in lifespan), marked * (P388 leukemia; P388, at OD on days 1, 5, 9, […], >20% statistically significant): 157%
- active (P388) (P388 leukemia): Y
- antibacterial activity (Aerobacter aerogenes): active
- antibacterial activity (Alcaligenes viscolactis): active
- antibacterial activity (Escherichia coli): active
- antibacterial activity (Bacillus subtilis): active
- antibacterial activity (Sarcina lutea): active
- antibacterial activity [2]: active
- antibacterial activity (Neisseria catarrhalis): active
- antibacterial activity (Staphylococcus aureus): active
- antibacterial activity (Xanthomonas phaseoli): active
- antibacterial activity (Streptococcus faecalis): active
- ILS (percentage increase in lifespan), marked * (Lewis lung carcinoma; Lewis lung, at OD on days 1, 5, 9, […], >40% statistically significant): 159%
- active (Lewis lung) (Lewis lung carcinoma; Lewis lung): Y

SMILES: COc1cc(NS(C)(=O)=O)ccc1Nc1c2ccccc2nc2ccccc12 [m-AMSA, 4'-(9-acridinylamino)methanesulphon-m-anisidide, reference compound]
- ILSmax (percentage increase in lifespan) (P388 leukemia; P388, at OD on days 1, 5, 9, values without asterisk, >20% statistically significant, controls 11 days): 78%
- active (P388) (P388 leukemia): Y
- antitumour activity / dose potency (in words) [3]: increased dose potency
- ILS (percentage increase in lifespan) (Lewis lung carcinoma; [4]): 38%
- active (Lewis lung) (Lewis lung carcinoma; Lewis lung): Y/N
- Lewis lung activity (in words) (Lewis lung carcinoma; tumour implanted intravenously, ILS of 40% required for statistical significance): minimal activity; also recorded: strictly inactive

Source: patent publication US4795826A, “Ortho-phenylenediamine compounds” (priority 1986, dated 1989)
